Assay results from patent US20180207294A1, “NON-ALCOHOLIC FATTY LIVER REGULATING FACTOR 14-3-3 PROTEIN” (Korea University Research and Business Foundation, priority 2015, published 2018).

Experiments:
PPARγ2 deletion mutants [1] = target: T1, PPARγ2 deletion mutants (Homo sapiens, UniProt P37231); assay: GST-pull down assay with PPARγ2 deletion mutants (HEK-293T); assay type: binding; details: FIG. 3B, 3C
T1 construct: expressed in transfected cells; host or cells: HEK-293T
T1 sequence (P37231 139-505): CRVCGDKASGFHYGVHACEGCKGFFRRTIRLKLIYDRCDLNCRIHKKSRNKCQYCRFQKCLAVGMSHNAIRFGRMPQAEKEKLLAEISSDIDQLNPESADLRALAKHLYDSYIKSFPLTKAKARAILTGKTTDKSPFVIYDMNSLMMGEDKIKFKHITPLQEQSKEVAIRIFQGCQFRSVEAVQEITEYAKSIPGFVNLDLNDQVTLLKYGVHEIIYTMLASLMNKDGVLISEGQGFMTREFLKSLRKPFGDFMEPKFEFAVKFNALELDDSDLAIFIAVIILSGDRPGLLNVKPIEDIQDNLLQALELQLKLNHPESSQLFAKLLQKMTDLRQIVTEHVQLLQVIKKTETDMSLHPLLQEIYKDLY
Description: (§1) The PPARγ2 protein has been reported to consist of an activation function 1 (AF-1, amino acids 1-138) domain, a DNA-binding domain (DBD, amino acids 139-203), a hinge region (amino acids 204-310), and an activation function 2 (AF-2, amino acids 311-505) domain (see FIG. 3A). Thus, GST-pull down assay was conducted to verify which domain part of PPARγ2 was bound to 14-3-3β and 14-3-3γ.
(§2) HEK-293T cells were seeded in a 100 mm plate at a density of 2×10^6 cells per each well, and then transfected with Flag-PPARγ2 (1-505) DNA (4 μg), Flag-PPARγ2 (1-310) DNA (4 μg), Flag-PPARγ2 (139-505) DNA (4 μg), and mGST-14-3-3β (4 μg) or mGST-14-3-3γ (4 μg) using an E-fection plus reagent (Lugen). For Flag-PPARγ2 (1-310) DNA and Flag-PPARγ2 (139-505) DNA, DNA fragments amplified through polymerase chain reaction (PCR) were cloned into a pCMV-3Tag-1 vector using restriction enzymes Xhol and Apal. A ratio of DNA to the E-fection plus reagent was 1:2, and this method was performed according to a manufacturer's manual. The corresponding cells were washed with ice-cold PBS and lysed using 500 μl/well of a lysis buffer (150 mM NaCl, 1 mM EDTA, 1% Nonidet P-40, 5% glycerol, 25 mM tris-HCl, pH 7.5, protease inhibitor added), and the lysed cells were centrifuged at 10,000×g and 4° C. for 10 minutes to extract proteins. Thereafter, 1,000 μg of the proteins was reacted with 20 μl of glutathione Sepharose 4B beads (GE Healthcare, Buckinghamshire, UK) for 6 hours, and then washing of the beads with 1 ml of ice-cold PBS was repeated 5 times, and the beads were boiled at 100° C. for 10 minutes, followed by 10% SDS-PAGE gel separation and western blotting. A ratio of GST antibodies (Santa Cruz) to Flag antibodies (Santa Cruz) was 1:3000. The detection of each protein was performed using West Pico ECL (Thermo scientific, Rockford, Ill.) and identified in a darkroom.

PPARγ2 deletion mutants [2] = target: T2, PPARγ2 deletion mutants (Homo sapiens, UniProt P37231); assay: as above; assay type: binding; details: FIG. 3B, 3C; remark: listed apart in the source
T2 construct: expressed in transfected cells; host or cells: HEK-293T
T2 sequence (P37231 1-310): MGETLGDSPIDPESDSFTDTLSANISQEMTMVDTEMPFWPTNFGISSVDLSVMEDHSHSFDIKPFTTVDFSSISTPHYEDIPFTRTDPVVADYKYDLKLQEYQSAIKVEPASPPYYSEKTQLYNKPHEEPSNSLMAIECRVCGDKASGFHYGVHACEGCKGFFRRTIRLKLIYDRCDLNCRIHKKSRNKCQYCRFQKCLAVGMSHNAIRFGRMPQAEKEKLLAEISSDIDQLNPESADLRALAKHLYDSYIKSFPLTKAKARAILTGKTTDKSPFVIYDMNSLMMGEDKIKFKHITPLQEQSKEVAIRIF
Description: as §1, §2

HepG2 cells [3] = assay: Oil Red-O lipid accumulation, HepG2 cells; assay type: cell-based; details: 14-3-3 overexpression, 200 μM oleic acid 72 hours, FIG. 9B
Description: HepG2 cells and primary mouse hepatocytes were separately seeded in a 6-well plate at a density of 4×10^5 cells per each well, and then transfected with GFP-14-3-3β DNA (1 μg) or GFP-14-3-3γ DNA (1 μg) and si-14-3-3β (10 μM, Santa Cruz) or si-14-3-3γ (10 μM, Santa Cruz) using an E-fection plus reagent (Lugen). A ratio of DNA to the E-fection plus reagent was 1:2, and this method was performed according to a manufacturer's manual. […] The stained cells were bleached with 1 ml of isopropanol and analyzed at a wavelength of 550 nm using a DU530 spectrophotometer (Beckman Instruments, Palo Alto, Calif.).

HepG2 cells [4] = assay: PPARγ2 target gene mRNA (PCR) with 14-3-3 overexpression and oleic acid, HepG2 cells; assay type: cell-based, human; details: 14-3-3 overexpression, 200 μM oleic acid 72 hours, FIG. 7A
Description: HepG2 cells were seeded in a 6-well plate at a density of 4×10^5 cells per each well, and then transfected with GFP-14-3-3β DNA (4 μg) or GFP-14-3-3γ DNA (4 μg) using an E-fection plus reagent (Lugen). A ratio of DNA to the E-fection plus reagent was 1:2, and this method was performed according to a manufacturer's manual. After transfection, the cells were treated with 200 μM of oleic acid (OA) for 72 hours, and for mRNA extraction, the corresponding cells were lysed with 1 ml/well of TRIzol (Invitrogen), 200 μl of chloroform was added thereto and mixed well, the resultant cells were maintained at room temperature for 5 minutes and then centrifuged at 12,000×g and 4° C. for 15 minutes, the obtained supernatant was mixed with 500 μl of isopropanol and then put on ice for 10 minutes, and the resulting supernatant was centrifuged at 12,000×g and 4° C. for 15 minutes to remove a supernatant, and then pellets were dissolved with tertiary distilled water treated with diethyl pyrocarbonate (DEPC). 2 μg of mRNA was synthesized into cDNA using a Superscript First Strand cDNA Synthesis Kit (Bioneer, Daejeon, South Korea) and the synthesized cDNA as a template was amplified through polymerase chain reaction (PCR) using primers specific to PPARγ2 (SEQ ID NOS: 1 and 2), 14-3-3β (SEQ ID NOS: 3 and 4), 14-3-3γ (SEQ ID NOS: 5 and 6), SREBP-1c, FAT/CD36, and β-actin of humans, and was amplified through real-time PCR using primers specific to SREBP-1c, FAT/CD36, and GAPDH of mice. β-actin and GAPDH were used as controls to see whether mRNAs of the respective cells were compared in the same amount.

Substance	binding to PPARγ2 deletion mutant (139-505) (PPARγ2 deletion mutants [1])	binding to PPARγ2 deletion mutant (1-310) (PPARγ2 deletion mutants [2])	lipid accumulation by oleic acid (Oil Red-O) (HepG2 cells [3])	mRNA expression of FAT/CD36 (HepG2 cells [4])	mRNA expression of SREBP-1c (HepG2 cells [4])
14-3-3β: 14-3-3 isoform protein, overexpressed by DNA transfection; regulating factor that increases transcriptional activity of PPARγ2	bound	bound	increased lipid accumulation	further increased	further increased
14-3-3γ: 14-3-3 isoform protein, overexpressed by DNA transfection; regulating factor that decreases transcriptional activity of PPARγ2	bound	bound	reduced lipid accumulation	reduced	reduced
